Laboratory results reported in ChEMBL document CHEMBL5634141 (Eur J Med Chem, 2023).
Calls of active or inactive are those of the source. The rule behind the calls is not given here.

Tests used:
MIA PaCa-2 [1] = experiment: Antiproliferative activity against human MIA PaCa-2 cells expressing KRAS G12C mutant assessed as relative cell viability at 100 nM incubated for 72 hrs by CCK-8 assay; type: functional; conditions: read-out: Activity
NCI-H358 [2] = experiment: Antiproliferative activity against human NCI-H358 cells expressing KRAS G12C mutant assessed as relative cell viability at 100 nM incubated for 72 hrs by CCK-8 assay; type: functional; conditions: read-out: Activity
NCI-H23 [3] = experiment: Antiproliferative activity against human NCI-H23 cells expressing KRAS G12C mutant assessed as relative cell viability at 100 nM incubated for 72 hrs by CCK-8 assay; type: functional; conditions: read-out: Activity
Calu-1 [4] = experiment: Antiproliferative activity against human Calu-1 cells expressing KRAS G12C mutant assessed as relative cell viability at 100 nM incubated for 72 hrs by CCK-8 assay; type: functional; conditions: read-out: Activity
SW837 [5] = experiment: Antiproliferative activity against human SW837 cells expressing KRAS G12C mutant assessed as relative cell viability at 100 nM incubated for 72 hrs by CCK-8 assay; type: functional; conditions: read-out: Activity
NCI-H358 [6] = experiment: Antiproliferative activity against human NCI-H358 cells expressing KRAS G12C mutant assessed as inhibition of cell growth incubated for 72 hrs by CCK-8 assay; type: functional, cell-based; conditions: NCI-H358, 72 h
ASPC1 = experiment: Antiproliferative activity against human ASPC1 cells expressing KRAS G12D mutant assessed as inhibition of cell growth incubated for 72 hrs by CCK-8 assay; type: functional, cell-based; conditions: ASPC1, 72 h
MIA PaCa-2 [7] = experiment: Antiproliferative activity against human MIA PaCa-2 cells expressing KRAS G12C mutant assessed as inhibition of cell growth incubated for 72 hrs by CCK-8 assay; type: functional, cell-based; conditions: MIA PaCa-2, 72 h
[8] = Cytotoxicity against HEK293T cells assessed as inhibition of cell growth incubated for 72 hrs by CCK-8 assay; type: toxicity, cell-based, HEK-293T; conditions: human
HepG2 = experiment: Antiproliferative activity against human HepG2 cells expressing KRAS assessed as inhibition of cell growth incubated for 72 hrs by CCK-8 assay; type: functional, cell-based; conditions: HepG2, 72 h
[9] = AUC (0 to t) in ICR mouse at 2 mg/kg, iv measured after 24 hrs by LC-MS/MS analysis; type: ADME, organism-based; conditions: in vivo
[10] = Half life in ICR mouse at 30 mg/kg, ip measured after 24 hrs by LC-MS/MS analysis; type: ADME, organism-based; conditions: in vivo
[11] = Inhibition of PI3K-AKT-mTOR pathway in human MIA PaCa-2 cells assessed as decrease in […] phosphorylation at 100 nM incubated for 6 to 8 days by Western blot analysis; type: cell-based; conditions: time 6-8 day
[12] = Tmax in ICR mouse at 30 mg/kg, ip measured after 24 hrs by LC-MS/MS analysis; type: ADME, organism-based; conditions: in vivo
[13] = Cmax in ICR mouse at 30 mg/kg, ip measured after 24 hrs by LC-MS/MS analysis; type: ADME, organism-based; conditions: in vivo
MIA PaCa-2 [14] = experiment: Inhibition of RAF-MEK-ERK pathway in human MIA PaCa-2 cells assessed as decrease in ERK phosphorylation at 100 nM incubated for 6 to 8 days by Western blot analysis; type: cell-based; conditions: time 6-8 day
[15] = AUC (0 to infinity) in ICR mouse at 30 mg/kg, ip measured after 24 hrs by LC-MS/MS analysis; type: ADME, organism-based; conditions: in vivo
[16] = Cmax in ICR mouse at 2 mg/kg, iv measured after 24 hrs by LC-MS/MS analysis; type: ADME, organism-based; conditions: in vivo
[17] = Volume of distribution at steady state in ICR mouse at 2 mg/kg, iv measured after 24 hrs by LC-MS/MS analysis; type: ADME, organism-based; conditions: in vivo
NCI-H358 [18] = experiment: Inhibition of RAF-MEK-ERK pathway in human NCI-H358 cells assessed as decrease in ERK phosphorylation at 100 nM incubated for 6 to 8 days by Western blot analysis; type: cell-based; conditions: time 6-8 day
[19] = AUC (0 to infinity) in ICR mouse at 2 mg/kg, iv measured after 24 hrs by LC-MS/MS analysis; type: ADME, organism-based; conditions: in vivo
[20] = Inhibition of PI3K-AKT-mTOR pathway in human NCI-H358 cells assessed as decrease in […] phosphorylation at 100 nM incubated for 6 to 8 days by Western blot analysis; type: cell-based; conditions: time 6-8 day
[21] = AUC (0 to t) in ICR mouse at 30 mg/kg, ip measured after 24 hrs by LC-MS/MS analysis; type: ADME, organism-based; conditions: in vivo
[22] = Clearance in ICR mouse at 2 mg/kg, iv measured after 24 hrs by LC-MS/MS analysis; type: ADME, organism-based; conditions: in vivo
[23] = Half life in ICR mouse at 2 mg/kg, iv measured after 24 hrs by LC-MS/MS analysis; type: ADME, organism-based; conditions: in vivo
MIA PaCa-2 [24] = experiment: Antiproliferative activity against human MIA PaCa-2 cells expressing KRAS G12C mutant assessed as relative cell viability at 50 nM incubated for 72 hrs by CCK-8 assay; type: functional; conditions: read-out: Activity
NCI-H358 [25] = experiment: Antiproliferative activity against human NCI-H358 cells expressing KRAS G12C mutant assessed as relative cell viability at 50 nM incubated for 72 hrs by CCK-8 assay; type: functional; conditions: read-out: Activity
NCI-H23 [26] = experiment: Antiproliferative activity against human NCI-H23 cells expressing KRAS G12C mutant assessed as relative cell viability at 50 nM incubated for 72 hrs by CCK-8 assay; type: functional; conditions: read-out: Activity
Calu-1 [27] = experiment: Antiproliferative activity against human Calu-1 cells expressing KRAS G12C mutant assessed as relative cell viability at 50 nM incubated for 72 hrs by CCK-8 assay; type: functional; conditions: read-out: Activity
SW837 [28] = experiment: Antiproliferative activity against human SW837 cells expressing KRAS G12C mutant assessed as relative cell viability at 50 nM incubated for 72 hrs by CCK-8 assay; type: functional; conditions: read-out: Activity
[29] = system: von Hippel-Lindau disease tumor suppressor/GTPase KRas (Homo sapiens), P01116+P40337 [G12C]; experiment: PROTAC activity at VHL/KRAS G12C mutant in human MIA PaCa-2 cells assessed as induction of protein degradation at 10 to 1000 nM incubated for 48 hrs by Western blotting analysis; type: cell-based; conditions: dose 10-1000 nM
[30] = system: von Hippel-Lindau disease tumor suppressor/GTPase KRas (Homo sapiens), P01116+P40337 [G12C]; experiment: PROTAC activity at VHL/KRAS G12C mutant in human NCI-H358 cells assessed as induction of protein degradation at 10 to 1000 nM incubated for 48 hrs by Western blotting analysis; type: cell-based; conditions: dose 10-1000 nM
MIA PaCa-2 [31] = experiment: Antiproliferative activity against human MIA PaCa-2 cells expressing KRAS G12C mutant assessed as relative cell viability at 200 nM incubated for 72 hrs by CCK-8 assay; type: functional; conditions: read-out: Activity
Calu-1 [32] = experiment: Antiproliferative activity against human Calu-1 cells expressing KRAS G12C mutant assessed as relative cell viability at 200 nM incubated for 72 hrs by CCK-8 assay; type: functional; conditions: read-out: Activity
SW837 [33] = experiment: Antiproliferative activity against human SW837 cells expressing KRAS G12C mutant assessed as relative cell viability at 200 nM incubated for 72 hrs by CCK-8 assay; type: functional; conditions: read-out: Activity
NCI-H23 [34] = experiment: Antiproliferative activity against human NCI-H23 cells expressing KRAS G12C mutant assessed as relative cell viability at 200 nM incubated for 72 hrs by CCK-8 assay; type: functional; conditions: read-out: Activity
NCI-H358 [35] = experiment: Antiproliferative activity against human NCI-H358 cells expressing KRAS G12C mutant assessed as relative cell viability at 200 nM incubated for 72 hrs by CCK-8 assay; type: functional; conditions: read-out: Activity

Cc1ccc(NC(=O)c2ccnc(C(F)(F)F)c2)cc1-c1cc(OCCO)nc(N2CCOCC2)c1 [NAPORAFENIB]
viability at 0.1 µM (MIA PaCa-2 [1]): 0.79% | viability at 0.1 µM (NCI-H358 [2]): 0.81% | viability at 0.1 µM (NCI-H23 [3]): 0.82% | viability at 0.1 µM (Calu-1 [4]): 0.9% | viability at 0.1 µM (SW837 [5]): 0.85%

C=CC(=O)N1CCN(c2nc(=O)n(-c3c(C)ccnc3C(C)C)c3nc(-c4c(F)cccc4OCc4cn(CCCCC(=O)N[C@H](C(=O)N5C[C@H](O)C[C@H]5C(=O)NCc5ccc(-c6scnc6C)cc5)C(C)(C)C)nn4)c(F)cc23)[C@@H](C)C1
IC50 (NCI-H358 [6]): 463 nM | IC50 (ASPC1): > 10000 nM | IC50 (MIA PaCa-2 [7]): 660 nM | IC50 at 72 h [8]: > 10000 nM | IC50 (HepG2): > 10000 nM

C=CC(=O)N1CCN(c2nc(=O)n(-c3c(C)ccnc3C(C)C)c3nc(-c4c(F)cccc4OCCOCCOCC(=O)Nc4cccc5c4CN(C4CCC(=O)NC4=O)C5=O)c(F)cc23)[C@@H](C)C1 (some centres undefined)
IC50 (NCI-H358 [6]): 765 nM | IC50 (ASPC1): > 10000 nM | IC50 (MIA PaCa-2 [7]): 690 nM | IC50 at 72 h [8]: > 10000 nM | IC50 (HepG2): > 10000 nM

C=CC(=O)N1CCN(c2nc(=O)n(-c3c(C)ccnc3C(C)C)c3nc(-c4c(O)cccc4F)c(F)cc23)[C@@H](C)C1 [SOTORASIB]
AUC(0-t) at 24 h [9]: 311 ng·h/mL | half-life [10]: 238 min | inhibition [11]: inactive | IC50 (NCI-H358 [6]): 12 nM | Tmax [12]: 15 min | Cmax [13]: 9840 ng/mL | inhibition (MIA PaCa-2 [14]): inactive | AUC(0-inf) [15]: 9450 ng·h/mL | Cmax [16]: 863 ng/mL | Vdss [17]: 1.62 L/kg | IC50 (ASPC1): > 10000 nM | IC50 (MIA PaCa-2 [7]): 18 nM | inhibition (NCI-H358 [18]): inactive | AUC [19]: 312 ng·h/mL | IC50 at 72 h [8]: > 10000 nM | inhibition [20]: inactive | IC50 (HepG2): > 10000 nM | AUC(0-t) at 24 h [21]: 9440 ng·h/mL | clearance [22]: 110 mL/min/kg | t1/2 [23]: 15.1 min

Cn1cnc2c(F)c(Nc3ccc(Br)cc3Cl)c(C(=O)NOCCO)cc21 [SELUMETINIB]
viability at 0.05 µM (MIA PaCa-2 [24]): 0.71% | viability at 0.05 µM (NCI-H358 [25]): 0.86% | viability at 0.05 µM (NCI-H23 [26]): 0.77% | viability at 0.05 µM (Calu-1 [27]): 0.82% | viability at 0.05 µM (SW837 [28]): 0.73%

C=CC(=O)N1CCN(c2nc(=O)n(-c3c(C)ccnc3C(C)C)c3nc(-c4c(F)cccc4OCC4CCN(CCCC(=O)N[C@H](C(=O)N5CC(O)C[C@H]5C(=O)NCc5ccc(-c6scnc6C)cc5)C(C)(C)C)CC4)c(F)cc23)[C@@H](C)C1 (some centres undefined)
Activity [29]: inactive | IC50 (NCI-H358 [6]): 588 nM | Activity [30]: inactive | IC50 (MIA PaCa-2 [7]): 278 nM

C=CC(=O)N1CCN(c2nc(=O)n(-c3c(C)ccnc3C(C)C)c3nc(-c4c(F)cccc4OCc4cn(CC(=O)N[C@H](C(=O)N5C[C@H](O)C[C@H]5C(=O)NCc5ccc(-c6scnc6C)cc5)C(C)(C)C)nn4)c(F)cc23)[C@@H](C)C1
IC50 (NCI-H358 [6]): 562 nM | IC50 (ASPC1): > 10000 nM | IC50 (MIA PaCa-2 [7]): 529 nM | IC50 at 72 h [8]: > 10000 nM | IC50 (HepG2): > 10000 nM

C[C@@H](Oc1cc(-c2cnn(C3CCNCC3)c2)cnc1N)c1c(Cl)ccc(F)c1Cl [CRIZOTINIB]
viability at 0.2 µM (MIA PaCa-2 [31]): 0.79% | viability at 0.2 µM (Calu-1 [32]): 0.87% | viability at 0.2 µM (SW837 [33]): 0.77% | viability at 0.2 µM (NCI-H23 [34]): 0.81% | viability at 0.2 µM (NCI-H358 [35]): 0.82%
